Assay results taken from patent US20050256132A1, “Use of ER selective NF-kB inhibitors for the treatment of sepsis” (priority 2003, published 2005).
Read-outs that look alike come from different tables or passages of the source.

What was measured:
ER/IL-6 = assay: Endothelial Cell ER/IL-6 Assay, IL-6 promoter luciferase (Table 2); assay type: cell-based, human; conditions: ERα infected HAECT-1 cells, IL-1β; for Emax: read-out: IL6 luc % Efficacy; for IC50: read-out: IL6 luc IC50
Outline: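 One lysate gave both read-outs: luciferase for ER/IL-6 and A340 rate after CK reagent for CK, with four-parameter logistic IC50/EC50. Cells were HAECT-1 aortic endothelial cells carrying adenoviral human ERα (or none), dosed […] at 34 °C from 2× stocks containing 2 ng/ml IL-1β and IL-6(1250 bp)-Luc adenovirus.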

CK = assay: Creatine kinase assay in ERα infected HAECT-1 cells (Table 2); assay type: cell-based, human; conditions: for Emax: HAECT1, read-out: CK % Efficacy
Description: T-175 flasks of 100% confluent HAECT-1 cells (immortalized human aortic endothelial cells) were washed with 8 ml of HBSS (HEPES buffered saline solution) and infected for fours hours with 6 ml of a 1:10 dilution of Ad5-wt-hERα virus (an adenovirus transfection vector that mediates CMV promoter driven expression of human ERα) in phenol red free Endothelial Cell Basal medium (Clonetics, San Diego, Calif., Catalog # CC-3129) containing 0.25% bovine serum albumin (EDM-BSA). After four hours, cells were washed with EDM-BSA and incubated overnight in the same medium. Following overnight incubation, cells were washed with EDM-BSA and infected for 2 hours with 6 ml of a 1:10 dilution of Ad5-3x(NFκB).Luc virus (Adenovirus luciferase expression vector driven by three repeats of the MHC NFκb sites 5′ to the thymidine kinase promoter) in EDM-BSA. After two hours, cells were washed and incubated at 34° C. for one hour. Cells were then washed, trypsinized, counted, and resuspended in 95% FBS/5% dimethylsulfoxide at a concentration of […], frozen as 1 or 5 ml aliquots in cryo-vials and stored at −150° C. Control (no ER infection) cells were processed as above without Ad5-wt-hERα virus infection.
ERα infected HAECT-1 cells or control cells were thawed, diluted 42× in warm EBM-BSA, plated into 96-well plates at 0.1 ml/well and incubated for 4 hours at 34° C. Test compounds were added to the cells at 2× stocks in EBM-BSA containing 2 ng/ml IL-1β Ad6-IL-6(1250 bp).Luc virus and plates were returned to the incubator (34° C.). After […], cells were lysed with 50 μl of Promega Cell Culture Lysis reagenet for about 5 minutes at room temperature on a shaker. After lysing, 15 μl of lysate is transferred to luminometer plates for luciferase determination. Luciferase activity is evaluated using a Perkin Elmer Victor2 1420 multilabel counter. Creatine kinase was determined from the rate of increase in A340 following addition of 100 μl of CK assay reagent (Sigma catalog no. 47-10) to the remainder of the cell lysate.
For IC50 and EC50 calculations, mean IL-6, luciferase or CK values versus log10 of the compound concentration were fitted to a four parameter logistic equation. The IC50/EC50 value, ‘Hill slope,’ upper and lower limits of the curve were iteratively estimated.

SMILES	IC50 (ER/IL-6; Homo sapiens, HAECT1) [nM]	melting point [°C]	EC50 (CK; Homo sapiens, HAECT1) [nM]	IC50 (ER/IL-6) [nM]	EC50 (CK) [nM]	Emax (ER/IL-6; Homo sapiens, HAECT1) [%]	Emax (CK; Homo sapiens) [%]	IL6 luc % Efficacy (ER/IL-6) [%]	CK % Efficacy (CK) [%]
COC(=O)[C@@](C#N)(Cc1ccc(-c2cccc(C(F)(F)F)c2)cc1)[C@H](c1ccccc1OC)c1cccc2ccccc12 (relative stereo) [Example 153, Methyl (2S*,3S*)-2-cyano-3-(2-methoxyphenyl)-3-(1-naphthyl)-2-{[3′-(trifluoromethyl)-1,1′-biphenyl-4-yl]methyl}propanoate]	149	202 to 204.1	–	–	–	150	15	–	–
COc1ccccc1C(c1ccnc2ccccc12)C(C#N)(Cc1cccnc1)C(=O)OC(C)(C)C (centres unmarked) [Example 166, tert-Butyl 2-cyano-3-(2-methoxyphenyl)-2-(pyridin-3-ylmethyl)-3-quinolin-4-ylpropanoate]	353	225 to 228	–	–	–	77	-13	–	–
COc1ccccc1[C@H](c1cccc2ccccc12)[C@@](C)(C#N)C(=O)N1CCC(n2c(=O)[nH]c3ccccc32)CC1 [Example 183, (2S,3S)-3-(2-methoxyphenyl)-2-methyl-3-(1-naphthyl)-2-{[4-(2-oxo-2,3-dihydro-1H-benzimidazol-1-yl)piperidin-1-yl]carbonyl}propanenitrile]	361	197 to 200	481	–	–	196	63	–	–
COC[C@@](C#N)(C(=O)N1CCN(c2cnccn2)CC1)[C@@H](c1ccccc1OC)c1cccc2ccccc12 [Example 224, (2R,3R)-2-(methoxymethyl)-3-(2-methoxyphenyl)-3-(1-naphthyl)-2-[(4-pyrazin-2-ylpiperazin-1-yl)carbonyl]propanenitrile]	832	150	–	–	–	77	-14	–	–
COC(=O)[C@@](C#N)(Cc1ccc(Br)cc1)[C@H](c1ccccc1OC)c1cccc2ccccc12 (relative stereo) [Example 152, Methyl (2S*,3S*)-2-(4-bromobenzyl)-2-cyano-3-(2-methoxyphenyl)-3-(1-naphthyl)propanoate]	19	218 to 219	85	–	–	130	14	–	–
COc1ccccc1[C@H](c1cccc2ccccc12)[C@@](C)(C#N)C(=O)N1CCC(N2CCOCC2)CC1 [Example 203, (2S,3S)-3-(2-methoxyphenyl)-2-methyl-2-[(4-morpholin-4-ylpiperidin-1-yl)carbonyl]-3-(1-naphthyl)propanenitrile]	9.93	209 to 210	–	–	–	28	-26	–	–
COc1ccccc1C(c1cccc2ccccc12)C(C#N)(COCc1ccccc1)C(=O)N1CCN(C2CCCCC2)CC1 (stereo not drawn) [Example 217, (RR,SS)-2-[(benzyloxy)methyl]-3-(4-cyclohexylpiperazin-1-yl)-2-[(2-methoxyphenyl) (1-naphthyl)methyl]-3-oxopropanenitrile]	–	–	–	203	–	–	–	12	−37
COC[C@](C#N)(C(=O)OC)[C@H](c1cnc2ccccc2c1)c1ccccc1OC (relative stereo) [Example 165, Methyl (2S*,3R*)-2-cyano-2-(methoxymethyl)-3-(2-methoxyphenyl)-3-quinolin-3-ylpropanoate]	–	–	–	–	–	21	-22	–	–
COC[C@](C#N)(C(=O)N1CC=C(c2c[nH]c3ccccc23)CC1)[C@H](c1ccccc1OC)c1cccc2ccccc12 [Example 225]	–	–	–	1600	–	–	–	83	−12
COc1ccccc1[C@@H](c1cccc2ccccc12)[C@@](C#N)(Cc1cccnc1)C(=O)N1CCN(c2cnccn2)CC1 [Example 177, (RR,SS)-3-(2-methoxyphenyl)-3-(1-naphthyl)-2-[(4-pyrazin-2-ylpiperazin-1-yl)carbonyl]-2-(pyridin-3-ylmethyl)propanenitrile]	–	–	–	1150	–	–	–	91	−32
COc1ccccc1[C@@H](c1cccc2ccccc12)[C@@](C#N)(COCc1ccccc1)C(=O)N1CCN(c2ncccn2)CC1 [Example 218, (RR,SS)-2-[(benzyloxy)methyl]-3-(2-methoxyphenyl)-3-(1-naphthyl)-2-[(4-pyrimidin-2-ylpiperazin-1-yl)carbonyl]propanenitrile]	–	–	–	103	–	–	–	101	−12
COc1ccccc1C(c1cccc2ccccc12)C(C#N)(Cc1cccnc1)C(=O)N1CC=C(c2c[nH]c3ccccc23)CC1 (stereo not drawn) [Example 178, (RR,SS)-3-[4-(1H-indol-3-yl)-3,6-dihydropyridin-1(2H)-yl]-2-[(2-methoxyphenyl)(1-naphthyl)methyl]-3-oxo-2-(pyridin-3-ylmethyl)propanenitrile]	–	–	–	94	–	–	–	137	−100
COCC(C#N)(C(=O)N1CCN(c2cnccn2)CC1)C(c1ccccc1OC)c1cccc2ccccc12 (stereo not drawn) [Example 212, (RR,SS)-2-(methoxymethyl)-3-(2-methoxyphenyl)-3-(1-naphthyl)-2-[(4-pyrazin-2-ylpiperazin-1-yl)carbonyl]propanenitrile]	–	–	–	59	138	–	–	113	22
COCCOCC(C#N)(C(=O)N1CCN(c2ncccn2)CC1)C(c1ccccc1OC)c1cccc2ccccc12 (stereo not drawn) [Example 167, (RR,SS)-2-[(2-Methoxyethoxy)methyl]-3-(2-methoxyphenyl)-3-(1-naphthyl)-2-[(4-pyrimidin-2-ylpiperazin-1-yl)carbonyl]propanenitrile]	–	–	–	1230	–	–	–	72	−16

Continued, in another order:

IC50 (ER/IL-6; Homo sapiens, HAECT1) [nM]	melting point [°C]	EC50 (CK; Homo sapiens, HAECT1) [nM]	IC50 (ER/IL-6) [nM]	EC50 (CK) [nM]	SMILES	Emax (ER/IL-6; Homo sapiens, HAECT1) [%]	Emax (CK; Homo sapiens) [%]	IL6 luc % Efficacy (ER/IL-6) [%]	CK % Efficacy (CK) [%]
–	148.3 to 151	–	–	–	COC[C@](C#N)(C(=O)OC)[C@H](c1ccccc1OC)c1cccc2ccccc12 (relative stereo) [Example 141, Methyl (2S*,3S*)-2-cyano-2-(methoxymethyl)-3-(2-methoxyphenyl)-3-(1-naphthyl)propanoate]	123	39	–	–
5.5	175.6 to 177.6	13.5	–	–	COC[C@@](C#N)(C(=O)OC)[C@@H](c1ccccc1OC)c1cccc2ccccc12 [Example 151, Methyl (2R,3R)-2-cyano-2-(methoxymethyl)-3-(2-methoxyphenyl)-3-(1-naphthyl)propanoate]	141	30	–	–
–	–	–	546	–	COCC(C#N)(C(=O)OC)C(c1ccccc1OC)c1ccnc2ccccc12 (stereo not drawn) [Example 162, Methyl (RR,SS)-2-cyano-2-(methoxymethyl)-3-(2-methoxyphenyl)-3-quinolin-4-ylpropanoate]	–	–	126	−4
–	–	–	331	–	COCCOC[C@@](C#N)(C(=O)NC(C)(C)C)[C@@H](c1ccccc1OC)c1cccc2ccccc12 [Example 169, (RR,SS)-N-(tert-Butyl)-2-cyano-2-[(2-methoxyethoxy)methyl]-3-(2-methoxyphenyl)-3-(1-naphthyl)propanamide]	–	–	97	−8
–	–	–	72	–	COCCOC[C@@](C#N)(C(=O)OC(C)(C)C)[C@@H](c1ccccc1OC)c1cccc2ccccc12 [Example 173, tert-Butyl (RR,SS)-2-cyano-2-[(2-methoxyethoxy)methyl]-3-(2-methoxyphenyl)-3-(1-naphthyl)propanoate]	–	–	124	−13
4.5	–	55	–	–	COCCOC[C@](C#N)(C(=O)OC)[C@H](c1ccccc1OC)c1cccc2ccccc12 [Example 158, Methyl (2S,3S)-2-cyano-2-[(2-methoxyethoxy)methyl]-3-(2-methoxyphenyl)-3-(1-naphthyl)propanoate]	121	23	–	–
